These results are taken from patent US8247579B2, “Spirocyclic tetronic acid derivatives” (Bayer Cropscience AG, priority 2007, dated 2012).

A short description of series [1]: Determination of the logP values by HPLC (EEC Directive 79/831 Annex V.A8). It counts as physicochemical. The note with it: reversed-phase C18 HPLC column, reversed-phase C18, 43° C., acidic range (pH 2.3). The procedure: Determination of the LogP Values The logP values given in the table were determined in accordance with EEC Directive 79/831 Annex V .A8 by HPLC (High Performance Liquid Chromatography) on a reversed-phase column (C18). Temperature: 43° C. Mobile phases for the determination in the acidic range (pH 2.3): 0.1% aqueous phosphoric acid, acetonitrile; linear gradient from 10% acetonitrile to 90% acetonitrile The calibration was carried out using unbranched alkan-2-ones (having 3 to 16 carbon atoms) with known logP values (determination of the logP values by the retention times using linear interpolation between two successive alkanones).

Series [2] deals with mixed thrips population (Frankliniella occidentalis). Briefly: Frankliniella occidentalis (FRANOC spray treatment). It counts as in vivo. The conditions noted are these: bean leaf disks. The method, then: Frankliniella occidentalis (FRANOC Spray Treatment)
If addition of ammonium salts is required, these are added by pipette in a concentration of 1000 ppm after dilution of the respective finished solution of the preparation.

The subject of series [3] is larvae of the mustard beetle (Phaedon cochleariae). Description: Phaedon test (PHAECO spray treatment). The conditions noted are these: application rate of 100 g/ha, Chinese cabbage discs.
The subject of series [4] is Tetranychus urticae, resistant. Description: Tetranychus urticae (TETRUR RAUS) spray test, resistant mites on bush bean plants. In kind it is in vivo. The note with it: concentration of 5 ppm, spraying. The method, then: Tetranychus urticae (TETRUR RAUS)
Bush bean plants (Phaseolus vulgaris) infested with a mixed population of resistant greenhouse red spider mites (Tetranychus urticae, resistant) are treated by spraying with the active compound preparation of the desired concentration.
(§1) After the desired period of time, the kill in % is determined.

Series [5] has as its system Green peach aphid (Myzus persicae). Description: Myzus persicae test (MYZUPE), dip treatment of cabbage leaves. In kind it is in vivo. The conditions noted are these: 100 ppm. The procedure:
Myzus persicae Test (MYZUPE)
(§2) If addition of ammonium salts, penetrants or ammonium salts and penetrants is required, these are added by pipette in a concentration of 1000 ppm after dilution of the respective finished solution of the preparation.
Cabbage leaves (Brassica oleracea) which are heavily infested by the Green peach aphid (Myzus persicae) are treated by being dipped into the active compound preparation of the desired concentration.
as §1

The subject of series [6] is greenhouse red spider mite (Tetranychus urticae sensitive). Briefly: Tetranychus test, OP-resistant/dip treatment (TETRUR). The note with it: dip. In kind it is in vivo. The procedure:
Tetranychus Test, OP-Resistant/Dip Treatment (TETRUR)
as §2

For orientation: chromatographic logP means lipophilicity estimated from chromatographic retention. Low readings indicate a more hydrophilic compound, high ones a more lipophilic compound. The molecule `Cc1cc(C)c(C2=C(OC(=O)CC3(C)OCCO3)C3(CCCC3)OC2=O)c(C)c1` [Example I-2] had a chromatographic logP in series [1] of 3.85. Further, the “effect in % (thrips killed)” value in series [2] (application rate of 100 g/ha) is on record as 63%. Besides, the “effect in % (beetle larvae killed)” value in series [3] came to 67%.
With `Cc1cc(C)c(C2=C(OC(=O)CC(C)(C)C)C3(CCCC3)OC2=O)c(C)c1` [spiromesifen, reference compound], the kill in % in series [4] was determined as 30%. Moreover, the “effect in % (thrips killed)” value in series [2] (application rate of 100 g/ha) and in series [2] (application rate of 500 g/ha) was 0% each time. Also, the “MYZUPE % 6 d (kill in %)” value in series [5] is recorded as 30%. Also, the “TETRUR % 7 d (effect in %)” value in series [6] (0.78125 ppm) is recorded as 0%; in series [6] (1.5625 ppm), 30%; in series [6] (3.125 ppm), 50%. The “effect in % (beetle larvae killed)” value in series [3] is recorded as 33%.
`COC(C)(C)CC(=O)OC1=C(c2c(C)cc(C)cc2C)C(=O)OC12CCCC2` [Example I-5] had a chromatographic logP in series [1] of 4.45. Also, the “MYZUPE % 6 d (kill in %)” value in series [5] came to 55%. Moreover, the “TETRUR % 7 d (effect in %)” value was found to be 30% in series [6] (0.78125 ppm), 50% in series [6] (1.5625 ppm) and 90% in series [6] (3.125 ppm).
In turn, `CCC(C)(C)CC(=O)OC1=C(c2c(C)cc(C)cc2C)C(=O)OC12CCCC2` [Example I-3] displayed a kill in % in series [4] of 97%.
The molecule `Cc1cc(C)c(C2=C(OC(=O)CC34CC5CC(CC(C5)C3)C4)C3(CCCC3)OC2=O)c(C)c1` [Example I-1] had a chromatographic logP in series [1] of 6.94. The “effect in % (thrips killed)” value in series [2] (application rate of 500 g/ha) is on record as 80%.
